In US12281070B2, “Water soluble antiviral and antimicrobial compound and process for preparation thereof” (priority 2020, dated 2025):

Assays:
[1] = tested on: PI-3 virus (enveloped virus); assay type: cell-based, Bovine parainfluenza virus
[2] = tested on: Escherichia coli (ATCC 8739); assay: Evaluation of antimicrobial activity, E. coli; assay type: cell-based; conditions: 10 mg/10 ml
Oral toxicity LD50, mice = assay type: in vivo
[3] = Water solubility / dispersibility of the synthesized substance; assay type: physicochemical; conditions: semi solid creamy substance as synthesized
[4] = tested on: SARS CoV-2 NIV2020-770 isolate; assay type: cell-based; conditions: 72 hours
avian influenza = tested on: avian influenza; set-up: species or system poultry birds; conditions: in vivo
[5] = tested on: Bacillus subtilis (ATCC 6633); assay: Evaluation of antimicrobial activity, B. subtilis; assay type: cell-based; conditions: 10 mg/10 ml
[6] = tested on: Staphylococcus aureus (ATCC 6538); assay: Evaluation of antimicrobial activity, S. aureus; assay type: cell-based; conditions: 10 mg/10 ml
Oral toxicity LD50, rat = assay type: in vivo

Question: With `CCCCCCCCCCCCCCCCC(=O)OC(O)CO` (stereo not shown) [Formula II, 1,2-dihydroxyethyl heptadecanoate] as the compound, how does the “% Log reduction” value [1] read?
Answer: 99.25%

Question: And the “Log10 Reduction” value [1]?
Answer: 2.12 Log10

Question: What about the “Virus Titer (Log10 TCID50/mL)” value [1] of the same compound?
Answer: 2.50 Log10 TCID50/mL

Question: And the “% reduction after 30 seconds” value ([2]; contact 30 seconds, inoculum 70000000 Cfu/ml)?
Answer: 31.43%

Question: What about the “% reduction after 1 minute” value ([2]; contact 1 minute) of the same compound?
Answer: 55.71%

Question: What about the “% reduction after 5 minutes” value ([2]; contact 5 minutes) of the same compound?
Answer: 60%

Question: And the “% reduction after 10 minutes” value ([2]; contact 10 minutes)?
Answer: 64.29%

Question: What about the “% reduction after 20 minutes” value ([2]; contact 20 minutes) of the same compound?
Answer: 99.9851%

Question: What about the cytotoxicity (Vero CCL-81 cells) of the same compound?
Answer: Dose dependent cytotoxicity

Question: And the CC50 (Vero CCL-81 cells; 72 hours)?
Answer: 600 fold dilution

Question: What about the “LD 50” value (Oral toxicity LD50, mice) of the same compound?
Answer: 4000 mg per kg wt

Question: What about the solubility in water [3] of the same compound?
Answer: water soluble and/or water dispersible

Question: What about the “inhibition of the RdRp-2 gene” value [4] of the same compound?
Answer: ~40%

Question: What about the “reduction in mortality of avian influenza infected birds” value (avian influenza) of the same compound?
Answer: 92%

Question: And the “% reduction after 30 seconds” value ([5]; contact 30 seconds, inoculum 76000000 Cfu/ml)?
Answer: 27.63%

Question: What about the “% reduction after 1 minute” value ([5]; contact 1 minute) of the same compound?
Answer: 44.74%

Question: What about the “% reduction after 5 minutes” value ([5]; contact 5 minutes) of the same compound?
Answer: 59.21%

Question: And the “% reduction after 10 minutes” value ([5]; contact 10 minutes)?
Answer: 65.79%

Question: What about the “% reduction after 20 minutes” value ([5]; contact 20 minutes) of the same compound?
Answer: 99.9789%

Question: And the “% reduction after 30 seconds” value ([6]; contact 30 seconds, inoculum 74000000 Cfu/ml)?
Answer: 31.08%

Question: What about the “% reduction after 1 minute” value ([6]; contact 1 minute) of the same compound?
Answer: 43.24%

Question: What about the “% reduction after 5 minutes” value ([6]; contact 5 minutes) of the same compound?
Answer: 54.05%

Question: And the “% reduction after 10 minutes” value ([6]; contact 10 minutes)?
Answer: 62.16%

Question: What about the “% reduction after 20 minutes” value ([6]; contact 20 minutes) of the same compound?
Answer: 99.9627%

Question: And the “LD 50” value (Oral toxicity LD50, rat)?
Answer: 4000 mg per kg wt
